From patent US20120329862A1, “NOVEL COMPOUND HAVING INHIBITORY EFFECT ON LIPASE” (SUNTORY HOLDINGS LIMITED, priority 2004, published 2012)

How the values were obtained:
[1] = molecular target: T1, porcine pancreatic lipase (Sus scrofa, UniProt P00591); test: Lipase inhibitory activity measurement (4-UMO fluorescent substrate); format: biochemical; settings: 4-UMO substrate, pH 8.0, 25° C., 30 minutes
T1 construct: purchased Sigma
T1 sequence (P00591 1-450): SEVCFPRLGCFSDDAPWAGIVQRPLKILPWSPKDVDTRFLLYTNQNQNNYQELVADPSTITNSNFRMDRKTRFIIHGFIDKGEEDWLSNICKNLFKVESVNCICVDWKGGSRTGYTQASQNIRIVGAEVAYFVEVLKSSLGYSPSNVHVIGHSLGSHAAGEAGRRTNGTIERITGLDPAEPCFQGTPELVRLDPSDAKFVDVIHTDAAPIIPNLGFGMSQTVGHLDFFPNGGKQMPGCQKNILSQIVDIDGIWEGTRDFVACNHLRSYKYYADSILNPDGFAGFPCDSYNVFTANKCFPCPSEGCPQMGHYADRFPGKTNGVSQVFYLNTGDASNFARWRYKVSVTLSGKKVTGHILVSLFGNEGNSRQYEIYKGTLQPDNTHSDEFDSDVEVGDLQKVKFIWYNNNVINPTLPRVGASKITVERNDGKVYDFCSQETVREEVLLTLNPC
Procedure: Lipase activity measurement was carried out by using oleic acid ester of fluorescent 4-methylumbelliferone (4-UMO) as a substrate, and measuring the fluorescence of 4-methylumbelliferone produced by reaction.
In the measurement, 13 mM Tris-HCl containing 150 mM NaCl and 1.36 mM CaCl2 was used as a buffer (pH 8.0). Substrate 4-UMO (Sigma) was prepared as 0.1M solution in DMSO and diluted 1000-fold with the buffer mentioned above. Similarly, lipase (porcine pancreatic lipase (Sigma)) was prepared as 400 U/ml solution in the buffer mentioned above and used in enzymatic measurement.
50 μl of the 4-UMO buffer solution and 25 μl of distilled water (or sample solution) were placed in a 96-well microplate and mixed at 25° C., followed by adding 25 μl of the lipase buffer solution to start enzyme reaction. After 30 minutes of reaction, 100 μl of 0.1M citric acid buffer (pH 4.2) was added to terminate the reaction, and the fluorescence of 4-methylumbelliferone (excitation wavelength: 355 nm, fluorescence wavelength: 460 nm) produced by the reaction was measured with a fluorescence plate reader (Labsystems, Fluoroskan Asent CF).
An inhibitory activity of the sample was determined as IC50, or the amount of the sample which gave […] of inhibition compared to the activity of control (distilled water).

[2] = Solubility of purified compound; format: physicochemical; settings: purified white powder
Text: The product obtained from oxidative polymerization reaction may be purified by conventional methods such as chromatography. […] Therefore, this compound is suitable for use in, for example, foods and/or beverages, and pharmaceutical drugs as an active lipase inhibitory ingredient for suppressing absorption of dietary lipids, thereby suppressing the rise of blood triglyceride or decreasing increased blood triglyceride.

| Compound | IC50 [1] [nM] | IC50 ([1]; value in brackets) [nM] | solubility [2] | lipase inhibitory activity IC50 [1] [µg/mL] |
| --- | --- | --- | --- | --- |
| O=C(O[C@@H]1Cc2c(O)cc(O)cc2O[C@@H]1C1=CC(=O)C2(O)Oc3c(O)c(O)cc([C@H]4Oc5cc(O)cc(O)c5C[C@H]4OC(=O)c4cc(O)c(O)c(O)c4)c3C12)c1cc(O)c(O)c(O)c1 (some centres unmarked) [OTNG, oolongtheanin-3′-O-gallate] | 67.8 | 68 | soluble in water, methanol and DMSO | – |
| epigallocatechin-3-O-gallate [EGCG, reference compound] | – | 349 | – | 0.16 |
